From US8835440B2, “Cyclic pyrimidin-4-carboxamides as CCR2 receptor antagonists for treatment of inflammation, asthma and COPD” (Boehringer Ingelheim International GmbH, priority 2008, dated 2014)

biological target: T1, CCR2 (Homo sapiens, UniProt P41597); test: CCR2 receptor membrane binding assay ([125I]MCP-1, THP-1 cell membranes, SPA beads); conditions: @ 10 μM test compound; THP-1 membranes; read-out: CCR2 % ctrl @ 10 μM
T1 construct: Membranes were prepared from THP-1 cells; endogenous in cells; host or cells: THP-1 cells (membrane preparation)
T1 sequence (P41597 1-360 isoform P41597-2): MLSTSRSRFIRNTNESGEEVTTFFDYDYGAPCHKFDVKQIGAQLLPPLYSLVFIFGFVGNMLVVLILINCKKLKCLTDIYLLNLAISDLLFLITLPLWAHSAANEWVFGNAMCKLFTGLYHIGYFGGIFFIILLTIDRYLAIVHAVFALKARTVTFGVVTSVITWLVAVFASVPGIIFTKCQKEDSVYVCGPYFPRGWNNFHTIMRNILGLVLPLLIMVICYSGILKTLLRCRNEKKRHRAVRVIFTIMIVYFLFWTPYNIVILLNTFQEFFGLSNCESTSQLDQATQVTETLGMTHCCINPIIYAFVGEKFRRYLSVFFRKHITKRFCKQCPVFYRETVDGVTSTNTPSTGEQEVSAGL
Outline: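 hKi was derived by iterative law-of-mass-action fitting of scintillation counts read at 8 h. Compound (1% DMSO final) competed with ca. 25000 cpm [125I]MCP-1 for THP-1 membranes bound to WGA-PVT beads. Buffer: 25 mM HEPES pH 7.2, 5 mM MgCl2, 0.5 mM CaCl2, 0.2% BSA.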

| SMILES | remaining activity at 10 µM |
| --- | --- |
| Cc1c(NCc2ccc(C(C)(C)C)cc2)ncnc1C(=O)N1CCC(N2CCC(CNS(C)(=O)=O)CC2)CC1 [Example 199] | 9% |
| Cc1c(NCc2ccc(C(C)(C)C)cc2)ncnc1C(=O)N1CCC(N2CCC(C(C)(C)C)CC2)CC1 [Example 200] | 5% |
| Cc1c(NCc2ccc(C(C)(C)C)cc2)ncnc1C(=O)N1CCC(N2CCC(c3ccncc3)CC2)CC1 [Example 201] | 6% |
| Cc1c(NCc2ccc(C(C)(C)C)cc2)ncnc1C(=O)N1CCC(N2CCC(C#N)CC2)CC1 [Example 202] | 7% |
| Cc1c(NCc2ccc(C(C)(C)C)cc2)ncnc1C(=O)N1CCC(N2CCC(Oc3ccc(F)c(F)c3)CC2)CC1 [Example 203] | 11% |
| Cc1c(NCc2ccc(C(C)(C)C)cc2)ncnc1C(=O)N1CCC(N2CCC(Oc3ccccn3)CC2)CC1 [Example 204] | 6% |
| Cc1c(NCc2ccc(C(C)(C)C)cc2)ncnc1C(=O)N1CCC(N2CCC(NS(=O)(=O)C(C)C)CC2)CC1 [Example 205] | 11% |
| CCN(C1CCN(C2CCN(C(=O)c3ncnc(NCc4ccc(C(C)(C)C)cc4)c3C)CC2)CC1)S(C)(=O)=O [Example 206] | 3% |
| Cc1nc(NCc2ccc(C(C)(C)C)cc2)c(C)c(C(=O)N2CCC(N3CCC(S(=O)(=O)N(C)C)CC3)CC2)n1 [Example 207] | 35% |
| COC1CCN(C2CCN(C(=O)c3ncnc(NCc4ccc(C(C)(C)C)cc4)c3C)CC2)CC1 [Example 208] | 7% |
| Cc1c(NCc2ccc(C(C)(C)C)cc2)ncnc1C(=O)N1CCC(N2CCOC(C)C2)CC1 (stereo not drawn) [Example 209] | 7% |
| Cc1c(NCc2ccc(C(C)(C)C)cc2)ncnc1C(=O)N1CCC(N2CCC(c3ccccc3)C2)CC1 (stereo not drawn) [Example 210] | 0% |
| CCC(C)NC(=O)C1CCN(C2CCN(C(=O)c3ncnc(NCc4ccc(C(C)(C)C)cc4)c3C)CC2)CC1 (stereo not drawn) [Example 211] | 5% |
| Cc1c(NCc2ccc(C(C)(C)C)cc2)ncnc1C(=O)N1CCC(N2CCC(n3c(C)nnc3C)CC2)CC1 [Example 212] | 24% |
| Cc1noc(C2CCN(C3CCN(C(=O)c4ncnc(NCc5ccc(C(C)(C)C)cc5)c4C)CC3)CC2)n1 [Example 213] | 14% |
| CNC(=O)C[C@H]1CCCN1C1CCN(C(=O)c2ncnc(NCc3ccc(C(C)(C)C)cc3)c2C)CC1 [Example 214] | 20% |
| CNC(=O)C[C@@H]1CCCN1C1CCN(C(=O)c2ncnc(NCc3ccc(C(C)(C)C)cc3)c2C)CC1 [Example 215] | 42% |
| Cc1c(NCc2ccc(C(C)(C)C)cc2)ncnc1C(=O)N1CCC(N2CCC[C@@H]2CC(=O)N(C)C)CC1 [Example 216] | 59% |

| SMILES | remaining activity at 10 µM |
| --- | --- |
| Cc1c(NCc2ccc(C(C)(C)C)cc2)ncnc1C(=O)N1CCC(N2CCC[C@H]2CC(=O)N(C)C)CC1 [Example 217] | 54% |
| Cc1c(NCc2ccc(C(C)(C)C)cc2)ncnc1C(=O)N1CCC(N2CC(C)OC(C)C2)CC1 (stereo not drawn) [Example 218] | 8% |
| CO[C@@H]1CCN(C2CCN(C(=O)c3ncnc(NCc4ccc(C(C)(C)C)cc4)c3C)CC2)C1 [Example 219] | 22% |
| CO[C@H]1CCN(C2CCN(C(=O)c3ncnc(NCc4ccc(C(C)(C)C)cc4)c3C)CC2)C1 [Example 220] | 27% |
| CNS(=O)(=O)C1CCN(C2CCN(C(=O)c3ncnc(NCc4ccc(C(C)(C)C)cc4)c3C)CC2)CC1 [Example 221] | 12% |
| Cc1c(NCc2ccc(C(C)(C)C)cc2)ncnc1C(=O)N1CCC(N2CC(N(C)S(C)(=O)=O)C2)CC1 [Example 222] | 31% |
| Cc1c(NCc2ccc(C(C)(C)C)cc2)ncnc1C(=O)N1CCC(N2CC(NS(C)(=O)=O)C2)CC1 [Example 223] | 14% |
| CNC(=O)C1(C)CCN(C2CCN(C(=O)c3ncnc(NCc4ccc(C(C)(C)C)cc4)c3C)CC2)CC1 [Example 224] | 35% |
| Cc1c(NCc2ccc(C(C)(C)C)cc2)ncnc1C(=O)N1CCC(N2CCC(c3ccccc3)CC2)CC1 [Example 225] | 0% |
| Cc1c(NCc2ccc(Cl)c(Cl)c2)ncnc1C(=O)N1CCC(N2CC[C@H](N(C)S(C)(=O)=O)C2)CC1 [Example 226] | 36% |
| CO[C@@H]1CN(C2CCN(C(=O)c3ncnc(NCc4ccc(Cl)c(Cl)c4)c3C)CC2)CC[C@H]1N(C)S(C)(=O)=O [Example 227] | 22% |
| Cc1c(NCc2ccc(Cl)c(Cl)c2)ncnc1C(=O)N1CCC(N2CCC(S(N)(=O)=O)CC2)CC1 [Example 228] | 16% |
| Cc1c(NCc2ccc(C(C)(C)C)cc2)ncnc1C(=O)N1CCC(N(C)C2CCCOC2)CC1 (stereo not drawn) [Example 228a] | 9% |
| COC1COCCC1NC1CCN(C(=O)c2ncnc(NCC3CCC[C@@H](c4ccccc4)C3)c2C)CC1 (stereo partly drawn) [Example 228b] | 4% |
| COC1COCCC1NC1CCN(C(=O)c2ncnc(NCc3ccc(C(C)(C)C)cc3)c2C)CC1 (stereo not drawn) [Example 228c] | 0% |
| Cc1c(NCc2ccc(C(C)(C)C)cc2)ncnc1C(=O)N1CCC(NC2CCOCC2F)CC1 (stereo not drawn) [Example 228d] | 1% |
| CCOC(=O)N1CCC(NC2CCN(C(=O)c3ncnc(NCc4ccc(C(C)(C)C)cc4)c3C)CC2)C(OC)C1 (stereo not drawn) [Example 228e] | 40% |
| Cc1c(NCc2ccc(C(C)(C)C)cc2)ncnc1C(=O)N1CCC(NC2CCOc3ccccc32)CC1 (stereo not drawn) [Example 228f] | 1% |

same assay, conditions: dissociation constant hKi; [125I]MCP-1 binding to THP-1 membranes

| SMILES | Ki |
| --- | --- |
| Cc1c(NCc2ccc(C(C)(C)C)cc2)ncnc1C(=O)N1CCC(N2CCC(CNS(C)(=O)=O)CC2)CC1 [Example 199] | 534 nM |
| Cc1c(NCc2ccc(C(C)(C)C)cc2)ncnc1C(=O)N1CCC(N2CCC(C(C)(C)C)CC2)CC1 [Example 200] | 108 nM |
| Cc1c(NCc2ccc(C(C)(C)C)cc2)ncnc1C(=O)N1CCC(N2CCC(c3ccncc3)CC2)CC1 [Example 201] | 101 nM |
| Cc1c(NCc2ccc(C(C)(C)C)cc2)ncnc1C(=O)N1CCC(N2CCC(C#N)CC2)CC1 [Example 202] | 292 nM |
| Cc1c(NCc2ccc(C(C)(C)C)cc2)ncnc1C(=O)N1CCC(N2CCC(Oc3ccc(F)c(F)c3)CC2)CC1 [Example 203] | 641 nM |
| Cc1c(NCc2ccc(C(C)(C)C)cc2)ncnc1C(=O)N1CCC(N2CCC(Oc3ccccn3)CC2)CC1 [Example 204] | 123 nM |
| Cc1c(NCc2ccc(C(C)(C)C)cc2)ncnc1C(=O)N1CCC(N2CCC(NS(=O)(=O)C(C)C)CC2)CC1 [Example 205] | 135 nM |
| CCN(C1CCN(C2CCN(C(=O)c3ncnc(NCc4ccc(C(C)(C)C)cc4)c3C)CC2)CC1)S(C)(=O)=O [Example 206] | 44 nM |
| Cc1nc(NCc2ccc(C(C)(C)C)cc2)c(C)c(C(=O)N2CCC(N3CCC(S(=O)(=O)N(C)C)CC3)CC2)n1 [Example 207] | 1180 nM |
| COC1CCN(C2CCN(C(=O)c3ncnc(NCc4ccc(C(C)(C)C)cc4)c3C)CC2)CC1 [Example 208] | 99 nM |
| Cc1c(NCc2ccc(C(C)(C)C)cc2)ncnc1C(=O)N1CCC(N2CCOC(C)C2)CC1 (stereo not drawn) [Example 209] | 177 nM |
| Cc1c(NCc2ccc(C(C)(C)C)cc2)ncnc1C(=O)N1CCC(N2CCC(c3ccccc3)C2)CC1 (stereo not drawn) [Example 210] | 83 nM |
| CCC(C)NC(=O)C1CCN(C2CCN(C(=O)c3ncnc(NCc4ccc(C(C)(C)C)cc4)c3C)CC2)CC1 (stereo not drawn) [Example 211] | 140 nM |
| Cc1c(NCc2ccc(C(C)(C)C)cc2)ncnc1C(=O)N1CCC(N2CCC(n3c(C)nnc3C)CC2)CC1 [Example 212] | 731 nM |
| Cc1noc(C2CCN(C3CCN(C(=O)c4ncnc(NCc5ccc(C(C)(C)C)cc5)c4C)CC3)CC2)n1 [Example 213] | 430 nM |
| CNC(=O)C[C@H]1CCCN1C1CCN(C(=O)c2ncnc(NCc3ccc(C(C)(C)C)cc3)c2C)CC1 [Example 214] | 711 nM |
| CNC(=O)C[C@@H]1CCCN1C1CCN(C(=O)c2ncnc(NCc3ccc(C(C)(C)C)cc3)c2C)CC1 [Example 215] | 2150 nM |
| Cc1c(NCc2ccc(C(C)(C)C)cc2)ncnc1C(=O)N1CCC(N2CCC[C@@H]2CC(=O)N(C)C)CC1 [Example 216] | 4280 nM |

| SMILES | Ki |
| --- | --- |
| Cc1c(NCc2ccc(C(C)(C)C)cc2)ncnc1C(=O)N1CCC(N2CCC[C@H]2CC(=O)N(C)C)CC1 [Example 217] | 4330 nM |
| Cc1c(NCc2ccc(C(C)(C)C)cc2)ncnc1C(=O)N1CCC(N2CC(C)OC(C)C2)CC1 (stereo not drawn) [Example 218] | 281 nM |
| CO[C@@H]1CCN(C2CCN(C(=O)c3ncnc(NCc4ccc(C(C)(C)C)cc4)c3C)CC2)C1 [Example 219] | 476 nM |
| CO[C@H]1CCN(C2CCN(C(=O)c3ncnc(NCc4ccc(C(C)(C)C)cc4)c3C)CC2)C1 [Example 220] | 979 nM |
| CNS(=O)(=O)C1CCN(C2CCN(C(=O)c3ncnc(NCc4ccc(C(C)(C)C)cc4)c3C)CC2)CC1 [Example 221] | 172 nM |
| Cc1c(NCc2ccc(C(C)(C)C)cc2)ncnc1C(=O)N1CCC(N2CC(N(C)S(C)(=O)=O)C2)CC1 [Example 222] | 1310 nM |
| Cc1c(NCc2ccc(C(C)(C)C)cc2)ncnc1C(=O)N1CCC(N2CC(NS(C)(=O)=O)C2)CC1 [Example 223] | 244 nM |
| CNC(=O)C1(C)CCN(C2CCN(C(=O)c3ncnc(NCc4ccc(C(C)(C)C)cc4)c3C)CC2)CC1 [Example 224] | 1230 nM |
| Cc1c(NCc2ccc(C(C)(C)C)cc2)ncnc1C(=O)N1CCC(N2CCC(c3ccccc3)CC2)CC1 [Example 225] | 21 nM |
| Cc1c(NCc2ccc(Cl)c(Cl)c2)ncnc1C(=O)N1CCC(N2CC[C@H](N(C)S(C)(=O)=O)C2)CC1 [Example 226] | 1170 nM |
| CO[C@@H]1CN(C2CCN(C(=O)c3ncnc(NCc4ccc(Cl)c(Cl)c4)c3C)CC2)CC[C@H]1N(C)S(C)(=O)=O [Example 227] | 333 nM |
| Cc1c(NCc2ccc(Cl)c(Cl)c2)ncnc1C(=O)N1CCC(N2CCC(S(N)(=O)=O)CC2)CC1 [Example 228] | 331 nM |
| Cc1c(NCc2ccc(C(C)(C)C)cc2)ncnc1C(=O)N1CCC(N(C)C2CCCOC2)CC1 (stereo not drawn) [Example 228a] | 1560 nM |
| COC1COCCC1NC1CCN(C(=O)c2ncnc(NCC3CCC[C@@H](c4ccccc4)C3)c2C)CC1 (stereo partly drawn) [Example 228b] | 2 nM |
| COC1COCCC1NC1CCN(C(=O)c2ncnc(NCc3ccc(C(C)(C)C)cc3)c2C)CC1 (stereo not drawn) [Example 228c] | 29 nM |
| Cc1c(NCc2ccc(C(C)(C)C)cc2)ncnc1C(=O)N1CCC(NC2CCOCC2F)CC1 (stereo not drawn) [Example 228d] | 91 nM |
| CCOC(=O)N1CCC(NC2CCN(C(=O)c3ncnc(NCc4ccc(C(C)(C)C)cc4)c3C)CC2)C(OC)C1 (stereo not drawn) [Example 228e] | 3720 nM |
| Cc1c(NCc2ccc(C(C)(C)C)cc2)ncnc1C(=O)N1CCC(NC2CCOc3ccccc32)CC1 (stereo not drawn) [Example 228f] | 15 nM |
